Data reported in ChEMBL document CHEMBL1145633, “Inhibitors of the tyrosine kinase EphB4. Part 1: Structure-based design and optimization of a series of 2,4-bis-anilinopyrimidines” (Bioorg Med Chem Lett, 2008).

Target: T1, Ephrin type-B receptor 4 (Homo sapiens, UniProt P54760)
T1 sequence (P54760 whole entry): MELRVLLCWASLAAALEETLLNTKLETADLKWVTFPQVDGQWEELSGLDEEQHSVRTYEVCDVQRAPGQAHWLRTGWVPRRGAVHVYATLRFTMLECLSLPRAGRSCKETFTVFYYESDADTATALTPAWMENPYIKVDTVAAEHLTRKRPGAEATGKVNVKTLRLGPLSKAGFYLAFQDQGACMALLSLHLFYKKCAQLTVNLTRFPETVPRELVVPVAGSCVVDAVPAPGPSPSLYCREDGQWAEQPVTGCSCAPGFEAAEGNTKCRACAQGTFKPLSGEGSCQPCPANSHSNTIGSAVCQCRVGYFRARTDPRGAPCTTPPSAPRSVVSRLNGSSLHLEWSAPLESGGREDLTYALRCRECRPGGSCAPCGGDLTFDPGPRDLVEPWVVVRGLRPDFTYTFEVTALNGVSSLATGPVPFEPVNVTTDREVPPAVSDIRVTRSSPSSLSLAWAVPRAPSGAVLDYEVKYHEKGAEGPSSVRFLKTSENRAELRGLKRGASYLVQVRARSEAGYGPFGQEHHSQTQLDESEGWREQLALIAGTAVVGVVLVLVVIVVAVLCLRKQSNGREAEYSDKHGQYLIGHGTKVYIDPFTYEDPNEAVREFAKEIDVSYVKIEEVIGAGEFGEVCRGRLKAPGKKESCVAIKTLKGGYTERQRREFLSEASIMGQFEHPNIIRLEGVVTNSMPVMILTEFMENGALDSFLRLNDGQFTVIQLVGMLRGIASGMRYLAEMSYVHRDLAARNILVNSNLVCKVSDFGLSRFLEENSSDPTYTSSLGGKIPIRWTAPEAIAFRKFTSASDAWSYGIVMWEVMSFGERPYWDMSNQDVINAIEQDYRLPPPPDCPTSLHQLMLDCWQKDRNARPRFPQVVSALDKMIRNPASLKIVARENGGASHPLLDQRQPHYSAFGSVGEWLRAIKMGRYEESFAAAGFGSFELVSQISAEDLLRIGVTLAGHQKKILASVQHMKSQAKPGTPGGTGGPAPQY
Test: Inhibition of EphB4

Row | SMILES | IC50 [nM]
1 | COc1ccccc1Nc1nccc(Nc2c(Cl)ccc3c2OCO3)n1 | 3880
2 | N#Cc1cccc(Nc2nccc(Nc3c(Cl)ccc4c3OCO4)n2)c1 | 550
3 | Clc1ccccc1Nc1nccc(Nc2c(Cl)ccc3c2OCO3)n1 | 11300
4 | NS(=O)(=O)c1ccc(Nc2nccc(Nc3c(Cl)ccc4c3OCO4)n2)cc1 | 300
5 | COc1ccc(Nc2nccc(Nc3c(Cl)ccc4c3OCO4)n2)cc1 | 1940

The remaining molecules from weak to strong by IC50, led by results:

Row | IC50 [nM] | SMILES
6 | 14000 | Cc1ccccc1Nc1nccc(Nc2c(Cl)ccc3c2OCO3)n1
7 | 7850 | Clc1ccc2c(c1Nc1ccnc(Nc3ccccc3N3CCOCC3)n1)OCO2
8 | 6000 | Clc1ccc(Nc2nccc(Nc3c(Cl)ccc4c3OCO4)n2)cc1
9 | 2540 | COc1cc(Nc2cc(Nc3c(Cl)ccc4c3OCO4)ncn2)cc(OC)c1OC
10 | 1150 | Fc1cccc(Nc2nccc(Nc3c(Cl)ccc4c3OCO4)n2)c1
11 | 1000 | Clc1ccc2c(c1Nc1ccnc(Nc3ccc(N4CCOCC4)cc3)n1)OCO2
12 | 630 | CS(=O)(=O)c1ccc(Nc2nccc(Nc3c(Cl)ccc4c3OCO4)n2)cc1
